Source: patent US20050148656A1, “Carboxylic derivates” (priority 2003, published 2005)

How the values were obtained:
[1] = biological target: T1, human PPARα (Homo sapiens, UniProt Q07869); experiment: Luciferase reporter assay in transiently transfected cells, PPARα activation; format: cell-based; conditions: 50% of maximal activation obtained by reference compound (ETYA); about 24 hours exposure
T1 construct: expressed in transfected cells
T1 sequence (Q07869 1-468): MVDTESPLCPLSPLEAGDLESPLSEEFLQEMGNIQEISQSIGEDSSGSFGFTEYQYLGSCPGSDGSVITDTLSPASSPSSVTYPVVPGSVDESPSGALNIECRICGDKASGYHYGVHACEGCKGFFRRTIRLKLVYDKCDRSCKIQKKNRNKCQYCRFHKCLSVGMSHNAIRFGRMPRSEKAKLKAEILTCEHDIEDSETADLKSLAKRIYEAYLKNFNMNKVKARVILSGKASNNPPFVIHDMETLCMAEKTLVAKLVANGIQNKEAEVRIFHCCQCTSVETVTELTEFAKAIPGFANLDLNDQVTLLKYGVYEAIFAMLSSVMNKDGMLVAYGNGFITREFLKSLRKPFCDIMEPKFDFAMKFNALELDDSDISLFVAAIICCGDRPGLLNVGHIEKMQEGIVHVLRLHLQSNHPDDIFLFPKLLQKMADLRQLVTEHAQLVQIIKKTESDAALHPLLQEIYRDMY
Experimental: (§1) The compounds of the invention were tested in the assays described in WO 03/051821.
(§2) Stock solutions of compounds in DMSO were diluted in appropriate concentration ranges in master plates. From master plates, compounds were diluted in culture media to obtain test compound solutions for final doses.
(§3) After adjustment of the amount of cell medium to 75 μl in each well, 50 μl test compound solution was added. Transiently transfected cells were exposed to compounds for about 24 hours before the luciferase detection assay was performed. For luciferase assays, 100 μl of assay reagent was added manually to each well and plates were left for approximately 20 minutes in order to allow lysis of the cells. After lysis, luciferase activity was measured in a 1420 Multiwell counter, Victor, from Wallach.
(§4) The TZD pioglitazone was used as reference substance for activation of both human and murine PPARγ. 5,8,11,14-Eicosatetrayonic acid (ETYA) was used as reference substance for human PPARα.
(§5) For calculation of EC50 values, a concentration-effect curve was established. Values used were derived from the average of two or three independent measurements (after subtraction of the background average value) and were expressed as the percentage of the maximal activation obtained by the reference compound. Values were plotted against the logarithm of the test compound concentration. EC50 values were estimated by linear […] between the data points and calculating the concentration required to achieve 50% of the maximal activation obtained by the reference compound.

[2] = system: PPARγ; experiment: Luciferase reporter assay in transiently transfected cells, PPARγ activation; format: cell-based, human and murine
Experimental: as §1, §2, §3, §4, §5

Row | Structure (SMILES) | EC50 [1] [nM] | ratio EC50 (PPARγ):EC50 (PPARα) [2]
1 | CCO[C@@H](Cc1ccc(OCC(=O)N(Cc2ccc(C(F)(F)F)cc2)Cc2ccc(C(F)(F)F)cc2)cc1)C(=O)O [Example 15, (2S)-3-[4-(2-{bis[4-(Trifluoromethyl)benzyl]amino}-2-oxoethoxy)phenyl]-2-ethoxypropanoic acid] | 3 | >900
2 | CCO[C@@H](Cc1ccc(OCC(=O)N(Cc2ccc(Cl)cc2)Cc2ccc(Cl)cc2)cc1)C(=O)O [Example 12, (2S)-3-(4-{2-[bis(4-Chlorobenzyl)amino]-2-oxoethoxy}phenyl)-2-ethoxypropanoic acid] | 3 | >1000
3 | CCO[C@@H](Cc1ccc(OCC(=O)N(Cc2ccc(Cl)cc2)Cc2ccc(C(C)(C)C)cc2)cc1)C(=O)O [Example 13, (2S)-3-(4-{2-[(4-tert-Butylbenzyl)(4-chlorobenzyl)amino]-2-oxoethoxy}phenyl)-2-ethoxypropanoic acid] | 8 | >400
